Like-named read-outs stand apart in the source and are kept apart here. Numbered stars: 1 amine (or outer) side, 2 acyl side, 3 side chain; on linkers, the order of the positions; unused ones are H or OH. Bridge positions count the residues as written; N and C are the ends. Square brackets hold non-standard residues; d marks the D form. Peptide text beside a SMILES is read from it. Trp(βS-Me,7-OMe) = COc1cccc2c([C@H](C)[C@H](N)C(=O)O)c[nH]c12; Morpholine(3S-CO,6,6-Me2) = CC1(C)CN[C@H](C(=O)O)CO1; Trp(7-Cl) = N[C@@H](Cc1c[nH]c2c(Cl)cccc12)C(=O)O; Phe(3-COOH) = N[C@@H](Cc1cccc(C(=O)O)c1)C(=O)O; Phe(4-CONH2) = NC(=O)c1ccc(C[C@H](N)C(=O)O)cc1; Phe(4-COOH) = N[C@@H](Cc1ccc(C(=O)O)cc1)C(=O)O; Trp(7-aza) = N[C@@H](Cc1c[nH]c2ncccc12)C(=O)O; Phe(4-CH2NH2) = NCc1ccc(C[C@H](N)C(=O)O)cc1; 3Pal(6-OMe) = COc1ccc(C[C@H](N)C(=O)O)cn1; Pip(5R-OH) = O=C(O)[C@@H]1CC[C@@H](O)CN1; X13 = O=C([C@H]1CC[C@@H](N[*:1])C1)[*:2]; X1 = O=C([C@@H]1CC[C@H](N[*:1])C1)[*:2]; Ala(2-furyl) = N[C@@H](Cc1ccco1)C(=O)O; Dap(CONH2) = NC(=O)NC[C@H](N)C(=O)O; Lys(Me2) = CN(C)CCCC[C@H](N)C(=O)O; Val(3-OH) = CC(C)(O)[C@H](N)C(=O)O; Pip(4-aza) = O=C(O)[C@@H]1CNCCN1; 4Pal = N[C@@H](Cc1ccncc1)C(=O)O; NMeE = CN[C@@H](CCC(=O)O)C(=O)O; X33 = N#CCCN(CC(=O)[*:2])[*:1]; X39 = C[C@H](C(=O)[*:1])[*:2]; Pip = O=C(O)[C@@H]1CCCCN1; αMeS = C[C@](N)(CO)C(=O)O; Nle = CCCC[C@H](N)C(=O)O; Sar = CNCC(=O)O

Usually IC50 stands for the concentration that gives 50% inhibition.

Experiment [1] has as its target T1, TNFα-induced NF-κB signal transduction pathway (TNFR1 signaling) in THP-1 cells (Homo sapiens, UniProt P19438).
T1 sequence (P19438 30-455): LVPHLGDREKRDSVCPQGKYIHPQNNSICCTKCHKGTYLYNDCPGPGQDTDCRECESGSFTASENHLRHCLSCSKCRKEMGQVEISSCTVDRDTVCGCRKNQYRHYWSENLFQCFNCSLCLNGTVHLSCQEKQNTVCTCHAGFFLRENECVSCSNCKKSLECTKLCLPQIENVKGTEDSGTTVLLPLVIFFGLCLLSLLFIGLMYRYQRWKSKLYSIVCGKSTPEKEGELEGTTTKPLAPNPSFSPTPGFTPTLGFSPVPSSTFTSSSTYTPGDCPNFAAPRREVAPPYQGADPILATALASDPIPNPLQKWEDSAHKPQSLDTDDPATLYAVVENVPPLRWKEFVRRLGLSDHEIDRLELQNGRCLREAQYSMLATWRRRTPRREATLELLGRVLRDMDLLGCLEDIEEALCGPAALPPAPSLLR
Description: THP-1 Lucia NF-κB reporter cell assay, inhibition of TNFα-induced NF-κB signaling. Type of experiment: cell-based. The conditions noted are these: THP-1 NF-κB Lucia reporter cells, 10 ng/mL TNFα, 16-18 h, secreted luciferase; read-out: THP-1 IC50. The method, boiled down:
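IC50 from a 4-parameter logistic fit of secreted luciferase luminescence (QUANTI-Luc), normalised to min/max controls. Reporter THP-1 cells were exposed to peptides for 1 h at 37 °C before 10 ng/mL TNFα (final) was added overnight (16–18 h).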

In experiment [2] the target is T2, human soluble TNFR1 (sTNFR1) (Homo sapiens, UniProt P19438).
T2 construct: made in house; host or cells: Sf21 (baculovirus)
T2 sequence (P19438 with tags, fused parts or gaps): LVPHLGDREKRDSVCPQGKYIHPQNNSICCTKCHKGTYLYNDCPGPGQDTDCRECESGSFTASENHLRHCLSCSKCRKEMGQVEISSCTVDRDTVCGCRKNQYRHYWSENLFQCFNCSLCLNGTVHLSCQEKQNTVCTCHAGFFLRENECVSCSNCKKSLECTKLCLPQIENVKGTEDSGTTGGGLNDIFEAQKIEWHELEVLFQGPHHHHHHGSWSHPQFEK
Description: Human sTNFR1-peptide displacement assay (LanthaScreen Eu TR-FRET binding assay). A digest of the protocol:
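Readout is the 665/615 nm TR-FRET ratio (Eu anti-His donor, streptavidin-Alexa647 acceptor), normalized to DMSO and saturating displacer, fit by Morrison-based five-parameter logistic for Kd^app. His-tagged sTNFR1 (1-211) prebound to 100 nM biotinylated peptide SEQ ID NO.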
On the technique in general: TR-FRET usually uses a lanthanide donor and a delayed reading to cut background.

The mark [3] stands for this setting: displacement of biotinylated peptide SEQ ID NO. 1 from sTNFR1, 20 point titration, 5-parameter fit based on Morrison equation (tight binding), read-out: TR-FRET Kd^app.
Where [4] appears, read: displacement of biotinylated peptide SEQ ID NO. 1 from sTNFR1, weaker binders, 10 pts titration, 4-parameter logistic model, read-out: TR-FRET, IC50.

In the case of `CCCC[C@@H]1NC(=O)[C@H]2CC[C@H](C2)NC(=O)[C@H]([C@@H](C)c2c[nH]c3c(OC)cccc23)NC(=O)CN(C)C(=O)[C@H](Cc2ccc(O)cc2)NC(=O)[C@H](Cc2ccc(C(N)=O)cc2)NC(=O)[C@](C)(CO)NC(=O)[C@H](Cc2c[nH]c3c(Cl)cccc23)NC(=O)[C@H](Cc2ccncc2)NC(=O)[C@H](CC(N)=O)NC(=O)[C@H](CCC(=O)O)N(C)C(=O)[C@H](Cc2c[nH]c3ccccc23)NC(=O)[C@@H]2COC(C)(C)CN2C(=O)[C@H](Cc2ccncc2)NC1=O` [SEQ ID NO. 214] (cyclo([4Pal][Trp(7-Cl)][αMeS][Phe(4-CONH2)]Y[Sar][Trp(βS-Me,7-OMe)][X13][Nle][4Pal][Morpholine(3S-CO,6,6-Me2)]W[NMeE]N)), the IC50 in experiment [1] was 3.7 nM; in experiment [2] (setting [4]), 0.95 nM. Moreover, the Kd in experiment [2] (setting [3]) was 0.61 nM.
As for `CCCC[C@@H]1NC(=O)CSC[C@@H](C(N)=O)NC(=O)[C@H]([C@@H](C)c2c[nH]c3c(OC)cccc23)NC(=O)CN(C)C(=O)[C@H](Cc2ccc(O)cc2)NC(=O)[C@H](Cc2ccc(C(=O)O)cc2)NC(=O)[C@](C)(CO)NC(=O)[C@H](Cc2c[nH]c3c(Cl)cccc23)NC(=O)[C@H](Cc2ccncc2)NC(=O)[C@H](CC(N)=O)NC(=O)[C@H](CCC(=O)O)N(C)C(=O)[C@H](Cc2c[nH]c3ncccc23)NC(=O)[C@H](C(C)(C)O)NC(=O)[C@H](Cc2c[nH]cn2)NC1=O` [SEQ ID NO. 217] ({CH2CO}-[Nle]H[Val(3-OH)][Trp(7-aza)][NMeE]N[4Pal][Trp(7-Cl)][αMeS][Phe(4-COOH)]Y[Sar][Trp(βS-Me,7-OMe)]C-NH2; thioether N-14), the IC50 in experiment [1] worked out at 4.4 nM; in experiment [2], 1 nM. Moreover, in experiment [2], the Kd worked out at 0.73 nM.
As for `CCCC[C@@H]1NC(=O)[C@@H]2CC[C@@H](C2)NC(=O)[C@H]([C@@H](C)c2c[nH]c3c(OC)cccc23)NC(=O)CN(C)C(=O)[C@H](Cc2ccc(O)cc2)NC(=O)[C@H](Cc2ccc(C(=O)O)cc2)NC(=O)[C@](C)(CO)NC(=O)[C@H](Cc2c[nH]c3c(Cl)cccc23)NC(=O)[C@H](Cc2ccncc2)NC(=O)[C@H](CNC(N)=O)NC(=O)[C@H](CCC(=O)O)N(C)C(=O)[C@H](Cc2c[nH]c3ccccc23)NC(=O)[C@@H]2CNCCN2C(=O)[C@H](Cc2ccncc2)NC1=O` [SEQ ID NO. 225] (cyclo([4Pal][Trp(7-Cl)][αMeS][Phe(4-COOH)]Y[Sar][Trp(βS-Me,7-OMe)][X1][Nle][4Pal][Pip(4-aza)]W[NMeE][Dap(CONH2)])), in experiment [1], the IC50 is 0.9 nM. The same compound registered a Kd in experiment [2] of 0.27 nM.
Consider `CCCC[C@@H]1NC(=O)CSC[C@@H](C(N)=O)NC(=O)[C@H]([C@@H](C)c2c[nH]c3c(OC)cccc23)NC(=O)CN(C)C(=O)[C@H](Cc2ccc(O)cc2)NC(=O)[C@H](Cc2ccc(C(=O)O)cc2)NC(=O)[C@](C)(CO)NC(=O)[C@H](Cc2c[nH]c3c(Cl)cccc23)NC(=O)[C@H](Cc2ccncc2)NC(=O)[C@H](CC(N)=O)NC(=O)CN(CCC#N)C(=O)[C@H](Cc2c[nH]c3ncccc23)NC(=O)[C@@H]2CCCCN2C(=O)[C@H](Cc2ccncc2)NC1=O` [SEQ ID NO. 228] ({CH2CO}-[Nle][4Pal][Pip][Trp(7-aza)][X33]N[4Pal][Trp(7-Cl)][αMeS][Phe(4-COOH)]Y[Sar][Trp(βS-Me,7-OMe)]C-NH2; thioether N-14), for which the IC50 in experiment [1] is 4 nM. For the same compound, in experiment [2], the IC50 worked out at 0.7 nM and the Kd was determined as 0.64 nM.
Consider `CCCC[C@@H]1NC(=O)CSC[C@@H](C(N)=O)NC(=O)[C@H]([C@@H](C)c2c[nH]c3c(OC)cccc23)NC(=O)CN(C)C(=O)[C@H](Cc2ccc(O)cc2)NC(=O)[C@H](Cc2ccc(C(=O)O)cc2)NC(=O)[C@](C)(CO)NC(=O)[C@H](Cc2c[nH]c3c(Cl)cccc23)NC(=O)[C@H](Cc2ccco2)NC(=O)[C@H](CC(N)=O)NC(=O)[C@H]2CCCN2C(=O)[C@H](Cc2c[nH]c3ccccc23)NC(=O)[C@@H]2CNCCN2C(=O)[C@H](Cc2ccncc2)NC1=O` [SEQ ID NO. 236] ({CH2CO}-[Nle][4Pal][Pip(4-aza)]W[dP]N[Ala(2-furyl)][Trp(7-Cl)][αMeS][Phe(4-COOH)]Y[Sar][Trp(βS-Me,7-OMe)]C-NH2; thioether N-14), for which the IC50 in experiment [1] amounted to 4.2 nM; in experiment [2], 0.9 nM.
`COc1cccc2c([C@H](C)[C@@H]3NC(=O)CN(C)C(=O)[C@H](Cc4ccc(O)cc4)NC(=O)[C@H](Cc4ccc(C(N)=O)cc4)NC(=O)[C@](C)(CO)NC(=O)[C@H](Cc4c[nH]c5c(Cl)cccc45)NC(=O)[C@H](Cc4ccncc4)NC(=O)[C@H](CC(N)=O)NC(=O)[C@H](CCC(=O)O)N(C)C(=O)[C@H](Cc4c[nH]c5ccccc45)NC(=O)[C@@H]4CC[C@@H](O)CN4C(=O)[C@H](Cc4ccncc4)NC(=O)[C@H](CCCCN(C)C)NC(=O)[C@@H]4CC[C@@H](C4)NC3=O)c[nH]c12` [SEQ ID NO. 238] (cyclo([4Pal][Trp(7-Cl)][αMeS][Phe(4-CONH2)]Y[Sar][Trp(βS-Me,7-OMe)][X1][Lys(Me2)][4Pal][Pip(5R-OH)]W[NMeE]N)): the IC50 in experiment [1] amounted to 0.7 nM. The Kd in experiment [2] worked out at 0.12 nM.
For `CCCC[C@@H]1NC(=O)[C@@H]2CC[C@@H](C2)NC(=O)[C@H]([C@@H](C)c2c[nH]c3c(OC)cccc23)NC(=O)CN(C)C(=O)[C@H](Cc2ccc(O)cc2)NC(=O)[C@H](Cc2ccc(C(=O)O)cc2)NC(=O)[C@](C)(CO)NC(=O)[C@H](Cc2c[nH]c3c(Cl)cccc23)NC(=O)[C@H](Cc2ccncc2)NC(=O)[C@H](CC(N)=O)NC(=O)[C@H](CCC(=O)O)N(C)C(=O)[C@H](Cc2c[nH]c3ccccc23)NC(=O)[C@@H]2CNCCN2C(=O)[C@H](Cc2ccc(OC)nc2)NC1=O` [SEQ ID NO. 241] (cyclo([4Pal][Trp(7-Cl)][αMeS][Phe(4-COOH)]Y[Sar][Trp(βS-Me,7-OMe)][X1][Nle][3Pal(6-OMe)][Pip(4-aza)]W[NMeE]N)), in that order: 1.4 nM and 0.24 nM.
With `CCCC[C@@H]1NC(=O)CSC[C@@H](C(N)=O)NC(=O)[C@H]([C@@H](C)c2c[nH]c3c(OC)cccc23)NC(=O)CN(C)C(=O)[C@H](Cc2ccc(O)cc2)NC(=O)[C@H](Cc2cccc(C(=O)O)c2)NC(=O)[C@](C)(CO)NC(=O)[C@H](Cc2c[nH]c3c(Cl)cccc23)NC(=O)[C@H](Cc2ccncc2)NC(=O)[C@H](CC(N)=O)NC(=O)[C@H](CCC(=O)O)N(C)C(=O)[C@H](Cc2c[nH]c3ccccc23)NC(=O)[C@@H]2CNCCN2C(=O)[C@H](Cc2ccncc2)NC1=O` [SEQ ID NO. 249] ({CH2CO}-[Nle][4Pal][Pip(4-aza)]W[NMeE]N[4Pal][Trp(7-Cl)][αMeS][Phe(3-COOH)]Y[Sar][Trp(βS-Me,7-OMe)]C-NH2; thioether N-14), the results for the IC50 in experiment [1] and in experiment [2] were 4.4 nM and 1 nM, respectively.
As to `CCCC[C@@H]1NC(=O)[C@@H](C)SC[C@@H](C(N)=O)NC(=O)[C@H]([C@@H](C)c2c[nH]c3c(OC)cccc23)NC(=O)CN(C)C(=O)[C@H](Cc2ccc(O)cc2)NC(=O)[C@H](Cc2ccc(C(N)=O)cc2)NC(=O)[C@](C)(CO)NC(=O)[C@H](Cc2c[nH]c3c(Cl)cccc23)NC(=O)[C@H](Cc2ccncc2)NC(=O)[C@H](CC(N)=O)NC(=O)[C@H](CCC(=O)O)N(C)C(=O)[C@H](Cc2c[nH]c3ncccc23)NC(=O)[C@H](CO)NC(=O)[C@H](Cc2ccc(CN)cc2)NC1=O` [SEQ ID NO. 250] ([Nle][Phe(4-CH2NH2)]S[Trp(7-aza)][NMeE]N[4Pal][Trp(7-Cl)][αMeS][Phe(4-CONH2)]Y[Sar][Trp(βS-Me,7-OMe)]C-NH2; linker N-14 via X39), the IC50 in experiment [1] amounted to 2.4 nM; in experiment [2] (setting [4]) it was 0.27 nM. The Kd in experiment [2] (setting [3]) is 0.17 nM.

(Values after patent US20240287138A1, “CYCLIC PEPTIDES FOR INHIBITING TNF RECEPTOR 1 ACTIVITY” (Merck Sharp & Dohme LLC, priority 2023, published 2024).)
